Test results as given in US10584157B2 (priority 2015, dated 2020).
“And” between values parts separate entries of the source, which are not always exact repeats. Identical values can stand only once. “Also recorded” adds a separate entry of the source. Like-named read-outs stand apart in the source and are kept apart here. Square brackets hold non-standard residues; d marks the D form. Ends that are not written are not given here. Peptide text beside a SMILES is read from it.

Legend:
[1] = tested on: cell-surface CD28; type: binding
cell-surface CD28, sequence (P01552 28-266 limits assumed): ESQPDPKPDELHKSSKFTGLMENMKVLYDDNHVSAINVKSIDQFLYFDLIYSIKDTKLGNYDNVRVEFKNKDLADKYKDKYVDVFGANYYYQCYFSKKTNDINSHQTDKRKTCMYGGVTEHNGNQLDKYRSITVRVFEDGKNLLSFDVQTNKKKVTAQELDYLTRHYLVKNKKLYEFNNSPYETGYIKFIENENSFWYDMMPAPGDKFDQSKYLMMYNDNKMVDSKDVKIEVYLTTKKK

[2] = tested on: PBMC induced with E. coli LPS; type: cell-based, human
[3] = tested on: SEB lethality in D-galactosamine-sensitized mice; type: in vivo, BALB/c mice
[4] = tested on: cell-surface B7-2; type: binding, human
cell-surface B7-2, sequence (P01552 28-266 limits assumed): as above

[5] = tested on: PBMC induced with αCD3; type: cell-based, human
[6] = biological target: cell-surface CD28 (Staphylococcus aureus, UniProt P01552); conditions: cited from earlier work
cell-surface CD28 (Staphylococcus aureus, UniProt P01552), sequence (P01552 28-266 limits assumed): as above

[7] = tested on: PBMC induced with SEB; type: cell-based, human
[8] = tested on: SMEZ; type: binding, Streptococcus pyogenes
[9] = biological target: SEB (Staphylococcus aureus, UniProt P01552); test: biochemical; type: binding, S. aureus; conditions: for kon: read-out: Ka (1/Ms), association rate; for koff: read-out: Kd (1/s), dissociation rate
SEB, sequence (P01552 28-266 limits assumed): as above

[10] = biological target: TSST-1 (Staphylococcus aureus, UniProt P06886); test: biochemical; type: binding, S. aureus; conditions: for kon: read-out: Ka (1/Ms), association rate; for koff: read-out: Kd (1/s), dissociation rate
TSST-1, sequence (P06886 41-234 limits assumed): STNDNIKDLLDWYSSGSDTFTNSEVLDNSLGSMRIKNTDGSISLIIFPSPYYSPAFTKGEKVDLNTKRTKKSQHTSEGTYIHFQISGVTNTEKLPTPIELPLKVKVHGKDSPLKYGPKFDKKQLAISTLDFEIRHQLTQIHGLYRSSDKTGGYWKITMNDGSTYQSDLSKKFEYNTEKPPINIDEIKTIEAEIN

[11] = tested on: PBMC induced with αCD3/αCD28; type: cell-based, human

In the case of [dA]MGRTSFDSDS[dA] [D-Ala-pB2-7], the “blocking of binding of SEB to cell-surface CD28” value (“blocking of binding of SEB” below) [1] is reported as “capable of blocking”, the “attenuation of LPS-mediated induction of TNF-α” value [2] is reported as “reduced” and the “survival of SEB challenge (mice surviving/group)” value (“survival … (mice surviving/group)” below) ([3]; n=6) is reported as “protected and 6/6”. The “inhibition of binding of SEB to cells expressing B7-2” value (shortened to “inhibition of binding of SEB”) [4] was “likewise blocked”, the “induction of an IFN-γ response by the peptide alone” value [5] was “at neither concentration” and the “inhibition of induction of IFN-γ by αCD3” value [5] was “did not inhibit”.
For HVKGKHLCP [p1TA, reference compound], the “blocking of binding of SEB” value [1] is given as “capable of blocking”, the “blocking of binding of SEB” value [6] is given as “abrogated” and the “inhibition of binding of SEB” value [4] is given as “equally inhibited”.
In the case of [dA]DSDSWTLR[dA] [D-Ala-pB2-6], the “blocking of binding of SEB” value [1] is reported as “capable of blocking”, the “effect on SEB-mediated induction of IL-10” value [7] is reported as “resistant” and the “inhibition of SEB-mediated induction of IFN-γ” value [7] is reported as “strongly inhibitory”. For the same molecule, the “inhibition of SEB-mediated induction of IL-2” value (from here on “inhibition … of IL-2”) [7] was “inhibited”, the “inhibition of SEB-mediated induction of TNF-α” value (shortened to “inhibition … of TNF-α”) [7] was “inhibited” and the “attenuation of LPS-mediated induction of TNF-α” value [2] was “sensitive to attenuation; also recorded: reduced”. For the same molecule, the “survival … (mice surviving/group)” value ([3]; n=5) was 5/5 and the “inhibition of binding of SEB” value [4] was “effectively blocked”.
With `CSCC[C@H](NC(=O)[C@H](Cc1ccc(O)cc1)NC(=O)[C@H](CCCCN)NC(=O)[C@H](CO)NC(=O)[C@H](Cc1c[nH]cn1)NC(=O)[C@@H](NC(=O)[C@H](CO)NC(=O)[C@H](CC(=O)O)NC(=O)[C@H](Cc1ccccc1)NC(=O)[C@H](CCCCN)NC(=O)[C@@H](N)CCC(=O)O)C(C)C)C(=O)O` [pB2-4] (H-EKFDSVHSKYM-OH; N-terminus and C-terminus assumed) the “inhibition of SEB-mediated induction of IFN-γ” value [7] was “only partially”, the “inhibition … of IL-2” value [7] was “only partially” and the “inhibition … of TNF-α” value [7] was “only partially”. The “Ka (1/Ms), association rate” value [8] was 3,020 1/Ms, the “Kd (1/s), dissociation rate” value [8] was 0.00293 s⁻¹ and the kon [9] was 413 M⁻¹ s⁻¹. The koff [9] was 0.000958 s⁻¹, the kon [10] was 4080 M⁻¹ s⁻¹ and the koff [10] was 0.0277 s⁻¹.
With [dA]EKFDSVHSKYM[dA] [D-Ala-pB2-4] the “blocking of binding of SEB” value [1] was “capable of blocking”, the “effect on SEB-mediated induction of IL-10” value [7] was “resistant” and the “inhibition of SEB-mediated induction of IFN-γ” value [7] was “strongly inhibitory”. For the same molecule, the “inhibition … of IL-2” value [7] was “inhibited”, the “inhibition … of TNF-α” value [7] was “inhibited” and the “attenuation of LPS-mediated induction of TNF-α” value [2] was “sensitive to attenuation; also recorded: reduced”. For the same molecule, the “survival … (mice surviving/group)” value ([3]; n=5) was 4/5, the “inhibition of binding of SEB” value [4] was “effectively blocked” and the “inhibition of CD28 signaling, IFN-γ induced by αCD3/αCD28” value [11] was “inhibition”. For the same molecule, the “inhibition of CD28 signaling, TNF-α induced by αCD3/αCD28” value [11] was “inhibition”.
For SPMLVAYD [p2TA, reference compound], the “blocking of binding of SEB” value [1] is listed as “capable of blocking”, the “blocking of binding of SEB” value [6] is listed as “abrogated” and the “inhibition of binding of SEB” value [4] is listed as “equally inhibited”.
For `CC(C)C[C@H](NC(=O)[C@@H](NC(=O)[C@H](Cc1c[nH]c2ccccc12)NC(=O)[C@H](CO)NC(=O)[C@H](CC(=O)O)NC(=O)[C@H](CO)NC(=O)[C@@H](N)CC(=O)O)[C@@H](C)O)C(=O)N[C@@H](CCCNC(=N)N)C(=O)O` [pB2-6] (H-DSDSWTLR-OH; N-terminus and C-terminus assumed), the “inhibition of SEB-mediated induction of IFN-γ” value [7] was “only partially”, the “inhibition … of IL-2” value [7] was “only partially” and the “inhibition … of TNF-α” value [7] was “only partially”. The “Ka (1/Ms), association rate” value [8] was 1,590 1/Ms, the Kd [8] was 1790 nM and the “Kd (1/s), dissociation rate” value [8] was 0.00286 s⁻¹. The kon [9] was 491 M⁻¹ s⁻¹, the koff [9] was 0.0019 s⁻¹ and the kon [10] was 2530 M⁻¹ s⁻¹. It also gave a koff [10] of 0.00304 s⁻¹.
With [dA]HHKKPTGMIR[dA] [D-Ala-pB2-3] the “inhibition of SEB-mediated induction of IFN-γ” value [7] was “failed to inhibit”.
For [dA]MLKIQAY[dA] [D-Ala-pB2-5], the “inhibition of SEB-mediated induction of IFN-γ” value [7] was “failed to inhibit”.
With MGRTSFDSDS [pB2-7] the “inhibition of SEB-mediated induction of IFN-γ” value [7] was “inhibited”, the “inhibition … of IL-2” value [7] was “inhibited” and the “inhibition of SEB-mediated induction of IL-10” value [7] was “did not inhibit”. For the same molecule, the “inhibition … of TNF-α” value [7] was “inhibited”, the “attenuation of IFN-γ expression induced by αCD3/αCD28” value [11] was “significant attenuation” and the “attenuation of TNF-α expression induced by αCD3/αCD28” value [11] was “significant attenuation”.
In the case of [dA]DLPCQFANSQN[dA] [D-Ala-pB2-2], the “inhibition of SEB-mediated induction of IFN-γ” value [7] is reported as “failed to inhibit” and the “inhibition of binding of SEB” value [4] is reported as “did not inhibit binding”.
